The values that follow come from patent publication US10370387B2, “Tricyclic fused thiophene derivatives as JAK inhibitors” (Incyte Corporation, priority 2012, dated 2019).

This test deals with human JAK1. The test is described as follows: In vitro JAK kinase assay (HTRF, phosphorylation of biotinylated peptide), JAK1. Format: biochemical. The conditions noted are these: ratio of JAK2 IC50 to JAK1 IC50, 1 mM ATP. Here is the method: Compounds herein were tested for inhibitory activity of JAK targets according to the following in vitro assay described in Park et al., Analytical Biochemistry 1999, 269, 94-104. The catalytic domains of human JAK1 (a.a. 837-1142), JAK2 (a.a. 828-1132) and JAK3 (a.a. 781-1124) were expressed using baculovirus in insect cells and purified. The catalytic activity of JAK1, JAK2 or JAK3 was assayed by measuring the phosphorylation of a biotinylated peptide. The phosphorylated peptide was detected by homogenous time resolved fluorescence (HTRF). IC50s of compounds were measured for each kinase in the 40 μL reactions that contain the enzyme, ATP and 500 nM peptide in 50 mM Tris (pH 7.8) buffer with 100 mM NaCl, 5 mM DTT, and 0.1 mg/mL (0.01%) BSA. For the 1 mM IC50 measurements, ATP concentration in the reactions was 1 mM. Reactions were carried out at room temperature for 1 hour and then stopped with 20 μL 45 mM EDTA, 300 nM SA-APC, 6 nM Eu-Py20 in assay buffer (Perkin Elmer, Boston, Mass.). Binding to the Europium labeled antibody took place for 40 minutes and HTRF signal was measured on a PHERA star plate reader (BMG, Cary, N.C.). The Example compounds were each tested in the Example A assay (see Table 1 for data for the compounds of the examples as tested by the assay of Example A at 1 mM ATP).
With `C[C@@H](O)c1nc2cnc3ccsc3c2n1C1CCN(CCCC(F)(F)F)CC1` [Example 60, (1R)-1-{1-[1-(4,4,4-Trifluorobutyl)piperidin-4-yl]-1H-imidazo[4,5-d]thieno[3,2-b]pyridin-2-yl}ethanol], the JAK2/JAK1 is given as above 10.
As to `C[C@@H](O)c1nc2cnc3ccsc3c2n1C1CCN(CC#N)CC1.O=C(O)C(F)(F)F` [Example 61, (4-{2-[(1R)-1-Hydroxyethyl]-1H-imidazo[4,5-d]thieno[3,2-b]pyridin-1-yl}piperidin-1-yl)acetonitrile trifluoroacetate], the JAK2/JAK1 is listed as above 10.
In the case of `C[C@@H](O)c1nc2cnc3ccsc3c2n1[C@H]1CCN(CCC#N)C1` [Example 62, 3-((3S)-3-{2-[(1R)-1-Hydroxyethyl]-1H-imidazo[4,5-d]thieno[3,2-b]pyridin-1-yl}pyrrolidin-1-yl)propanenitrile] it was above 10; in that of `C[C@@H](O)c1nc2cnc3ccsc3c2n1[C@H]1CCN(C(=O)CC#N)C1` [Example 63, 3-((3S)-3-{2-[(1R)-1-Hydroxyethyl]-1H-imidazo[4,5-d]thieno[3,2-b]pyridin-1-yl}pyrrolidin-1-yl)-3-oxopropanenitrile], above 6; in that of `C[C@@H](O)c1nc2cnc3ccsc3c2n1[C@H]1CCN(CCCC(F)(F)F)C1` [Example 64, (1R)-1-{1-[(3S)-1-(4,4,4-Trifluorobutyl)pyrrolidin-3-yl]-1H-imidazo[4,5-d]thieno[3,2-b]pyridin-2-yl}ethanol], above 10.
In the case of `C[C@@H](O)c1nc2cnc3ccsc3c2n1[C@H]1CCN(CCCC#N)C1` [Example 65, 4-((3S)-3-{2-[(1R)-1-Hydroxyethyl]-1H-imidazo[4,5-d]thieno[3,2-b]pyridin-1-yl}pyrrolidin-1-yl)butanenitrile], the JAK2/JAK1 is reported as above 10.
For `C[C@@H](O)c1nc2cnc3ccsc3c2n1[C@H]1CCN(CCCCC#N)C1` [Example 66, 5-((3S)-3-{2-[(1R)-1-Hydroxyethyl]-1H-imidazo[4,5-d]thieno[3,2-b]pyridin-1-yl}pyrrolidin-1-yl)pentanenitrile], the JAK2/JAK1 is above 10.
Turning to `C[C@@H](O)c1nc2cnc3ccsc3c2n1[C@H]1CC[C@H](CC#N)[C@H](N)C1` [Example 67, ((1R,2R,4S)-2-Amino-4-{2-[(1R)-1-hydroxyethyl]-1H-imidazo[4,5-d]thieno[3,2-b]pyridin-1-yl}cyclohexyl)acetonitrile], the JAK2/JAK1 is above 10.
Take `CC(N)c1nc2cnc3ccsc3c2n1[C@H]1CC[C@H](CC#N)OC1.O=C(O)C(F)(F)F` (stereo partly drawn) [Example 68, {(2R,5S)-5-[2-(1-Aminoethyl)-1H-imidazo[4,5-d]thieno[3,2-b]pyridin-1-yl]tetrahydro-2H-pyran-2-yl}acetonitrile trifluoroacetate]: the JAK2/JAK1 is above 10.
As for `CC(=O)NC(C)c1nc2cnc3ccsc3c2n1[C@H]1CC[C@H](CC#N)OC1` (stereo partly drawn) [Example 69, N-(1-{1-[(3S,6R)-6-(Cyanomethyl)tetrahydro-2H-pyran-3-yl]-1H-imidazo[4,5-d]thieno[3,2-b]pyridin-2-yl}ethyl) acetamide], the JAK2/JAK1 is recorded as above 10.
Under `CNC(C)c1nc2cnc3ccsc3c2n1[C@H]1CC[C@H](CC#N)OC1` (stereo partly drawn) [Example 70, ((2R,5S)-5-{2-[1-(Methylamino)ethyl]-1H-imidazo[4,5-d]thieno[3,2-b]pyridin-1-yl}tetrahydro-2H-pyran-2-yl)acetonitrile] stands above 10; under `CC(F)c1nc2cnc3ccsc3c2n1[C@H]1CC[C@H](CC#N)OC1` (stereo partly drawn) [Example 71, {(2R,5S)-5-[2-(1-Fluoroethyl)-1H-imidazo[4,5-d]thieno[3,2-b]pyridin-1-yl]tetrahydro-2H-pyran-2-yl}acetonitrile], above 10.
Turning to `N#CCc1nc2cnc3ccsc3c2n1[C@H]1CC[C@H](CC#N)OC1` [Example 73, {(2R,5S)-5-[2-(Cyanomethyl)-1H-imidazo[4,5-d]thieno[3,2-b]pyridin-1-yl]tetrahydro-2H-pyran-2-yl}acetonitrile], the JAK2/JAK1 is above 10.
In the case of `N#CCc1nc2cnc3ccsc3c2n1[C@H]1CC[C@@H](CC#N)OC1` [Example 74, {(2S,5S)-5-[2-(Cyanomethyl)-1H-imidazo[4,5-d]thieno[3,2-b]pyridin-1-yl]tetrahydro-2H-pyran-2-yl}acetonitrile] it was above 10.
As for `C[C@@H](O)c1nc2cnc3ccsc3c2n1[C@H]1CC[C@H](CNS(C)(=O)=O)OC1` [Example 75, N-[((2R,5S)-5-{2-[(1R)-1-Hydroxyethyl]-1H-imidazo[4,5-d]thieno[3,2-b]pyridin-1-yl}tetrahydro-2H-pyran-2-yl)methyl]methanesulfonamide], the JAK2/JAK1 is given as above 10.
In the case of `CC(C)OC(=O)NC[C@H]1CC[C@H](n2c([C@@H](C)O)nc3cnc4ccsc4c32)CO1` [Example 76, Isopropyl [((2R,5S)-5-{2-[(1R)-1-hydroxyethyl]-1H-imidazo[4,5-d]thieno[3,2-b]pyridin-1-yl}tetrahydro-2H-pyran-2-yl)methyl]carbamate] it was above 10.
In the case of `CC(=O)NC[C@H]1CC[C@H](n2c([C@@H](C)O)nc3cnc4ccsc4c32)CC1` [Example 79, N-[(trans-4-{2-[(1R)-1-Hydroxyethyl]-1H-imidazo[4,5-d]thieno[3,2-b]pyridin-1-yl}cyclohexyl)methyl]acetamide] it was above 10.
`C[C@@H](O)c1nc2cnc3ccsc3c2n1[C@H]1CC[C@H](CNS(C)(=O)=O)CC1` [Example 80, N-[(trans-4-{2-[(1R)-1-Hydroxyethyl]-1H-imidazo[4,5-d]thieno[3,2-b]pyridin-1-yl}cyclohexyl)methyl]methanesulfonamide]: the JAK2/JAK1 was above 10.
Under `C[C@@H](O)c1nc2cnc3ccsc3c2n1[C@H]1CC[C@H](CNC(=O)N(C)C)CC1` [Example 81, N′-[(trans-4-{2-[(1R)-1-Hydroxyethyl]-1H-imidazo[4,5-d]thieno[3,2-b]pyridin-1-yl}cyclohexyl)methyl]-N,N-dimethylurea] stands above 10; under `CCOC(=O)NC[C@H]1CC[C@H](n2c([C@@H](C)O)nc3cnc4ccsc4c32)CC1` [Example 82, Ethyl [(trans-4-{2-[(1R)-1-hydroxyethyl]-1H-imidazo[4,5-d]thieno[3,2-b]pyridin-1-yl}cyclohexyl)methyl]carbamate], above 10; under `CCCOC(=O)NC[C@H]1CC[C@H](n2c([C@@H](C)O)nc3cnc4ccsc4c32)CC1` [Example 83, Propyl [(trans-4-{2-[(1R)-1-hydroxyethyl]-1H-imidazo[4,5-d]thieno[3,2-b]pyridin-1-yl}cyclohexyl)methyl]carbamate], above 10.
As to `CC(C)OC(=O)NC[C@H]1CC[C@H](n2c([C@@H](C)O)nc3cnc4ccsc4c32)CC1` [Example 84, Isopropyl [(trans-4-{2-[(1R)-1-hydroxyethyl]-1H-imidazo[4,5-d]thieno[3,2-b]pyridin-1-yl}cyclohexyl)methyl]carbamate], the JAK2/JAK1 is listed as above 10.
Under `C[C@@H](O)c1nc2cnc3ccsc3c2n1[C@H]1CC[C@H](CNC(=O)OC2CCOC2)CC1` (stereo partly drawn) [Example 85, Tetrahydrofuran-3-yl [(trans-4-{2-[(1R)-1-hydroxyethyl]-1H-imidazo[4,5-d]thieno[3,2-b]pyridin-1-yl}cyclohexyl)methyl]carbamate] stands above 10; under `COC(=O)NC[C@H]1CC[C@H](n2c(CC#N)nc3cnc4ccsc4c32)CC1` [Example 86, Methyl ({trans-4-[2-(cyanomethyl)-1H-imidazo[4,5-d]thieno[3,2-b]pyridin-1-yl]cyclohexyl}methyl)carbamate], above 10.
Under `CCOC(=O)NC[C@H]1CC[C@H](n2c(CC#N)nc3cnc4ccsc4c32)CC1` [Example 87, Ethyl ({trans-4-[2-(cyanomethyl)-1H-imidazo[4,5-d]thieno[3,2-b]pyridin-1-yl]cyclohexyl}methyl)carbamate] stands above 10; under `CC(C)OC(=O)NC[C@H]1CC[C@H](n2c(CC#N)nc3cnc4ccsc4c32)CC1` [Example 88, Isopropyl ({trans-4-[2-(cyanomethyl)-1H-imidazo[4,5-d]thieno[3,2-b]pyridin-1-yl]cyclohexyl}methyl)carbamate], above 10; under `CCC(=O)NC[C@H]1CC[C@H](n2c(CC#N)nc3cnc4ccsc4c32)CC1` [Example 89, N-({trans-4-[2-(Cyanomethyl)-1H-imidazo[4,5-d]thieno[3,2-b]pyridin-1-yl]cyclohexyl}methyl)propanamide], above 10.
Under `N#CCc1nc2cnc3ccsc3c2n1[C@H]1CC[C@H](CC#N)CC1` [Example 90, {1-[trans-4-(Cyanomethyl)cyclohexyl]-1H-imidazo[4,5-d]thieno[3,2-b]pyridin-2-yl}acetonitrile] stands above 10; under `N#CC[C@H]1CC[C@H](n2c(CO)nc3cnc4ccsc4c32)CO1` [Example 91, {(2R,5S)-5-[2-(Hydroxymethyl)-1H-imidazo[4,5-d]thieno[3,2-b]pyridin-1-yl]tetrahydro-2H-pyran-2-yl}acetonitrile], above 10.
